Data published in patent US5066794A, “Process for preparing a disaccharide derivative” (Daiichi Pharmaceutical Co., Ltd., priority 1990, dated 1991).

What was measured:
[1] = system: Japanese white rabbits; test: Test I: local Shwartzman reaction induction activity; type: in vivo; conditions: 100 μg S. minnesota LPS i.v. 20 hours later
Experimental: The local Shwartzman reaction test (Test I) is examined to determine the phenomenon of necrosis, at the site where a test compound was injected, induced by intravenous injection of lipopolysaccharide (hereinafter referred to as LPS) after 20 hours from intracutaneous injection of the test compound to test animals, preferably in rabbits.
The test on Shwartzman reaction specific to endotoxin was carried out as follows using Japanese white rabbits (female, weighing around 3 kg). That is, Japanese domestic white rabbits were intracutaneously injected with the test compound. Twenty hours later, 100 μg of LPS extracted from Salmonella minnesota R595, Re-mutant was intravenously injected to each rabbit. The Shwartzman reaction-induction activity was expressed in terms of number of animals that suffered from hemorrhagic necrosis at the site that had been prepared by intracutaneous injection of the test compound.

[2] = system: Japanese domestic white rabbits; test: Test II: pyrogenicity test (body temperature increase in rabbits); conditions: 0.1 μg/kg intravenous; febrile = temperature increase of 0.6° C. or more
Experimental: The pyrogenicity of the compounds of this invention was determined in terms of body temperature increase in rabbits after intravenous injection of the test compound in accordance with the test method of pyrogenicity defined in Japanese Pharmacopoeia. That is, the rectal temperatures of Japanese domestic white rabbits (body weight: 2 to 2.5 kg) were measured 3 times at one-hour intervals. When the temperature in the second and third measurements were substantially equal, the third temperature was taken as a reference temperature. Within 15 minutes after the third measurement, the test compound dissolved in pyrogen-free distilled water was injected in the ear vein, and the rectal temperature was measured 3 times at one-hour intervals after injection. A difference between the reference temperature and the maximum temperature was taken as an increase of body temperature, and the pyrogenicity of the test compound was expressed by the number of febrile animals showing a temperature increase of 0.6° C. or more.

[3] = system: murine lymphocytes (splenocytes); test: Mitogenicity: stimulation of [^3 H]-labeled thymidine uptake into isolated murine lymphocytes (splenocytes); type: cell-based, BALB/c nu/nu mice; conditions: Mus musculus, Splenocyte, 48 hours, 37° C., read-out: Stimulation Index ± S.E. of mitogenicity ([^3 H]-labeled thymidine uptake; T/C)
Experimental: Spleen of BALB/c nu/nu mice (male; 8-week old) was minced, and lymphocytes collected from the minced spleen were incubated with graded doses of test compounds in RPMI 1640 medium without fetal bovine serum at 37° C. at a concentration of 1×10^5 to 1×10^6 lymphocytes per ml for 48 hours. Twenty-four hours before the completion of the incubation, [^3 H]-labeled thymidine (manufactured by New England Nuclear) was added to the culture. After the completion of the incubation, cells were collected on glass microfiber paper and dried, and the radioactivity of [^3 H]-labeled thymidine incorporated into the cells was measured. The ratio of thymidine uptake in the test culture to which the test compound had been added to that in the respective control culture was determined as a stimulation index. The higher the stimulation index, the higher the mitogenicity.

| Compound | Shwartzman reaction-induction activity: Number of Necrosed Animals/Number of Tested Animals ([1]; 80 μg/site intracutaneous) | Pyrogenicity: Number of Febrile Animals/Number of Tested Animals [2] | Shwartzman reaction-induction activity: Number of Necrosed Animals/Number of Tested Animals ([1]; 20 μg/site intracutaneous) | fold induction at 0.01 µg/mL ([3]; 0.01 μg/ml) | fold induction at 0.1 µg/mL ([3]; 0.1 μg/ml) | fold induction at 1 µg/mL ([3]; 1 μg/ml) |
| --- | --- | --- | --- | --- | --- | --- |
| CCCCCCCCCCC[C@@H](O)CC(=O)N[C@H]1[C@H](OC[C@H]2O[C@H](OP(=O)(O)O)[C@H](NC(=O)C[C@H](O)CCCCCCCCCCC)[C@@H](OC(=O)C[C@H](O)CCCCCCCCCCC)[C@@H]2O)O[C@H](CO)[C@@H](OP(=O)(O)O)[C@@H]1OC(=O)C[C@H](O)CCCCCCCCCCC [Control Compound 1, 6-O-{2-Deoxy-2-[(R)-3-hydroxytetradecanoylamino]-3-O-[(R)-3-hydroxytetradecanoyl]-4-O-phosphono-β -D-glucopyranosyl}-2-deoxy-2-[(R)-3-hydroxytetradecanoylamino]-3-O-[(R)-3-hydroxytetradecanoyl]-1-O-phosphono-α-D-glucopyranose, reference compound] | 0/3 | 0/3 |  |  |  |  |
| CCCCCCCCCCCCCC(=O)O[C@H](CCCCCCCCCCC)CC(=O)O[C@@H]1[C@@H](NC(=O)C[C@@H](CCCCCCCCCCC)OC(=O)CCCCCCCCCCC)[C@H](OC[C@H]2O[C@H](OP(=O)(O)O)[C@H](NC(=O)C[C@H](O)CCCCCCCCCCC)[C@@H](OC(=O)C[C@H](O)CCCCCCCCCCC)[C@@H]2O)O[C@H](CO)[C@H]1OP(=O)(O)O [Compound of Present Invention, 6-O-{2-Deoxy-2-[(R)-3-dodecanoyloxytetradecanoylamino]-3-O-[(R)-3-tetradecanoyloxytetradecanoyl]-4-O-phosphono-β-D-glucopyranosyl}-2-deoxy-2-[(R)-3-hydroxytetradecanoylamino]-3-O-[(R)-3-hydroxytetradecanoyl]-1-O-phosphono-α-D-glucopyranose] |  | 3/4 | 2/3 | 4.06 ± 0.35 | 9.05 ± 0.7 | 11.8 ± 0.13 |
